From patent US8569292B2, “Cyclic inhibitors of 11β-hydroxysteroid dehydrogenase 1” (Vitae Pharmaceuticals, Inc., priority 2008, dated 2013) come the findings set out here.

The target of experiment [1] is T1, 11β-HSD1 (Homo sapiens, UniProt P28845). Nature of the experiment: biochemical. The note with it: for inhibition at 0.1 µM: read-out: Average % inhibition at 100 nM.
Experiment [2] deals with T1, 11β-HSD1. Put plainly: Biological Test Example 4: microsomal 11β-HSD1 in the presence of 50% human plasma. The note with it: for Shift: IC50 in Test Example 4 divided by IC50 in Test Example 1.
[3] abbreviates: Biological Test Example 1 IC50 (nM).
Setting [4] is: IC50 Range, Biological Test Example 1.

SMILES strings stand for the structures.

T1 sequence (P28845 whole entry): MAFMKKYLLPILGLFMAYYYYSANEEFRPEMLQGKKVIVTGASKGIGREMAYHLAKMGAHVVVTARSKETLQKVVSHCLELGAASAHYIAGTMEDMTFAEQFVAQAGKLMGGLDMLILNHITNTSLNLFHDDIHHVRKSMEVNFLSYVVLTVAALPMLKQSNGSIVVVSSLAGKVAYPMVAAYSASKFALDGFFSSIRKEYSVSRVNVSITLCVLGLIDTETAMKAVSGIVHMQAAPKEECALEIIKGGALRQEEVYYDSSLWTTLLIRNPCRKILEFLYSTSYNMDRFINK

What is called IC50 is the concentration that inhibits the measured activity by half. The term inhibition denotes the relative decrease from the control value, in per cent. Regarding `C[C@@H](c1ccc(-c2cccc(OC3CCCC3)n2)cc1)N1CC[C@](CC(C)(C)O)(c2ccccc2)OC1=O` [EXAMPLE 28, (S)-3-((S)-1-(4-(6-(cyclopentyloxy)pyridin-2-yl)phenyl)ethyl)-6-(2-hydroxy-2-methylpropyl)-6-phenyl-1,3-oxazinan-2-one], the results for the half-inhibitory concentration (IC50) in experiment [1] (setting [3]), in experiment [1] (setting [4]) and in experiment [2] were 1.4 nM, under 100 nM and 186 nM, respectively. Further, the inhibition at 0.1 µM in experiment [1] was found to be 89.7%. The Shift in experiment [2] was 129.7.
In the same order, the values of `C[C@@H](c1ccc(-c2cncc(C(N)=O)n2)cc1)N1CC[C@](CC(C)(C)O)(c2ccc(F)cc2)OC1=O` [EXAMPLE 159, 6-(4-{1-[6-(4-Fluoro-phenyl)-6-(2-hydroxy-2-methyl-propyl)-2-oxo-[1,3]oxazinan-3-yl]-ethyl}-phenyl)-pyrazine-2-carboxylic acid amide] are 3.3 nM, under 100 nM, 7.3 nM, 94.6% and 2.2.
With `C[C@@H](c1ccc(-c2ccncc2)cc1)N1CC[C@](CCC(N)=O)(c2ccc(F)cc2)OC1=O` [EXAMPLE 74, 3-((R)-6-(4-fluorophenyl)-2-oxo-3-((S)-1-(4-(pyridin-4-yl)phenyl)ethyl)-1,3-oxazinan-6-yl)propanamide], the IC50 in experiment [1] (setting [3]) was 1.4 nM; in experiment [1] (setting [4]) it was under 100 nM; in experiment [2], 4.7 nM. The inhibition at 0.1 µM in experiment [1] turned out to be 95.7%.
Take `CCOc1cc(-c2ccc([C@H](C)N3CC[C@](CC(C)(C)O)(c4ccccc4)OC3=O)cc2)cc(C)n1` [EXAMPLE 162, (S)-3-((S)-1-(4-(2-ethoxy-6-methylpyridin-4-yl)phenyl)ethyl)-6-(2-hydroxy-2-methylpropyl)-6-phenyl-1,3-oxazinan-2-one]: the values for the IC50 in experiment [1] (setting [3]), in experiment [1] (setting [4]) and in experiment [2] were 1.4 nM, under 100 nM and 31.7 nM, respectively. Moreover, in experiment [1], the inhibition at 0.1 µM is 87.2%. Also, the Shift in experiment [2] was 21.9.
Take `C=CC[C@]1(c2ccc(F)cc2)CCN([C@@H](C)c2ccc(-n3ccc(C(F)(F)F)n3)cc2)C(=O)O1` [EXAMPLE 43, (R)-6-allyl-6-(4-fluorophenyl)-3-((S)-1-(4-(3-(trifluoromethyl)-1H-pyrazol-1-yl)phenyl)ethyl)-1,3-oxazinan-2-one]: the IC50 in experiment [1] (setting [3]) is 8.6 nM; in experiment [1] (setting [4]) it was under 100 nM; in experiment [2] it was 315 nM. Also, the inhibition at 0.1 µM in experiment [1] turned out to be 86.2%. For the same compound, the Shift in experiment [2] was 36.5.
The like results for `C[C@@H](c1ccc(-c2ncc(C(=O)NC(C)(C)C)s2)cc1)N1CC[C@](CC(C)(C)C#N)(c2ccccc2)OC1=O` [EXAMPLE 24, N-tert-butyl-2-(4-((S)-1-((R)-6-(2-cyano-2-methylpropyl)-2-oxo-6-phenyl-1,3-oxazinan-3-yl)ethyl)phenyl)thiazole-5-carboxamide] were, in that order, 0.8 nM, under 100 nM, 4.4 nM, 96.9% and 5.2.
On to `C[C@@H](c1ccc(-c2ccccn2)cc1)N1CC[C@](CCO)(c2ccccc2)OC1=O` [EXAMPLE 85, (S)-6-(2-hydroxyethyl)-6-phenyl-3-((S)-1-(4-(pyridin-2-yl)phenyl)ethyl)-1,3-oxazinan-2-one], for which the IC50 in experiment [1] (setting [3]) was 0.9 nM; in experiment [1] (setting [4]), under 100 nM; in experiment [2], 12.9 nM. The inhibition at 0.1 µM in experiment [1] is 94.3%.
For the compound `Cc1ccc(-c2ccc([C@H](C)N3CC[C@](CCCO)(c4ccc(F)cc4)OC3=O)cc2)nn1` [EXAMPLE 114, (R)-6-(4-fluorophenyl)-6-(3-hydroxypropyl)-3-((S)-1-(4-(6-methylpyridazin-3-yl)phenyl)ethyl)-1,3-oxazinan-2-one], the IC50 in experiment [1] (setting [3]) was 0.9 nM; in experiment [1] (setting [4]), under 100 nM; in experiment [2], 3.9 nM. For the same compound, the inhibition at 0.1 µM in experiment [1] was found to be 98.9%. In addition, in experiment [2], the Shift stood at 4.5.
Consider `Cc1cc(-c2ccc([C@H](C)N3CC[C@](CCC(=O)O)(c4ccc(F)cc4)OC3=O)cc2)ccn1` [EXAMPLE 77, 3-((R)-6-(4-fluorophenyl)-3-((S)-1-(4-(2-methylpyridin-4-yl)phenyl)ethyl)-2-oxo-1,3-oxazinan-6-yl)propanoic acid], for which the half-inhibitory concentration (IC50) is 38.1 nM in experiment [1] (setting [3]), under 100 nM in experiment [1] (setting [4]) and 114 nM in experiment [2]. Further, the inhibition at 0.1 µM in experiment [1] stood at 79.9%. The Shift in experiment [2] was determined as 3.0.
The like results for `C[C@@H](c1ccc(-c2ncc(C(=O)NC(C)(C)C)s2)cc1)N1CC[C@](CC(C)(C)O)(c2ccccc2)OC1=O` [EXAMPLE 23, N-tert-butyl-2-(4-((S)-1-((S)-6-(2-hydroxy-2-methylpropyl)-2-oxo-6-phenyl-1,3-oxazinan-3-yl)ethyl)phenyl)thiazole-5-carboxamide] were, in that order, 2.7 nM, under 100 nM, 13.7 nM, 89.3% and 5.1.
As to `Cc1cc(-c2ccc([C@H](C)N3CC[C@](CCO)(c4ccccc4)OC3=O)cc2)ccn1` [EXAMPLE 96, (S)-6-(2-hydroxyethyl)-3-((S)-1-(4-(2-methylpyridin-4-yl)phenyl)ethyl)-6-phenyl-1,3-oxazinan-2-one], the IC50 is 0.7 nM in experiment [1] (setting [3]), under 100 nM in experiment [1] (setting [4]) and 5.6 nM in experiment [2]. Further, the inhibition at 0.1 µM in experiment [1] is 99.8%.
As for `Cc1cc(-c2ccc([C@H](C)N3CC[C@](CCCO)(c4ccc(F)cc4)OC3=O)cc2)cc(C)[n+]1[O-]` [EXAMPLE 122, 4-(4-((S)-1-((R)-6-(4-fluorophenyl)-6-(3-hydroxypropyl)-2-oxo-1,3-oxazinan-3-yl)ethyl)phenyl)-2,6-dimethylpyridine 1-oxide], the figures for the IC50 in experiment [1] (setting [3]), in experiment [1] (setting [4]) and in experiment [2] were 2.5 nM, under 100 nM and 6.5 nM, respectively. Also, the inhibition at 0.1 µM in experiment [1] is 94.5%. For the same compound, in experiment [2], the Shift came to 2.6.
As to `C[C@@H](c1ccc(-c2cccnc2)cc1)N1CC[C@](CCCO)(c2ccc(F)cc2)OC1=O` [EXAMPLE 197, (R)-6-(4-fluorophenyl)-6-(3-hydroxypropyl)-3-((S)-1-(4-(pyridin-3-yl)phenyl)ethyl)-1,3-oxazinan-2-one], the half-maximal inhibitory concentration (IC50) was 1.1 nM in experiment [1] (setting [3]), under 100 nM in experiment [1] (setting [4]) and 5.7 nM in experiment [2]. Moreover, the inhibition at 0.1 µM in experiment [1] was 96.5%.
For the compound `CC(=O)N(C)CCC[C@]1(c2ccccc2)CCN([C@@H](C)c2ccc(-c3ccnc(C)c3)cc2)C(=O)O1` [EXAMPLE 102, N-methyl-N-(3-((R)-3-((S)-1-(4-(2-methylpyridin-4-yl)phenyl)ethyl)-2-oxo-6-phenyl-1,3-oxazinan-6-yl)propyl)acetamide], the IC50 in experiment [1] (setting [3]) is 3.6 nM; in experiment [1] (setting [4]), under 100 nM; in experiment [2], 63 nM. For the same compound, the inhibition at 0.1 µM in experiment [1] amounted to 94.3%. Also, in experiment [2], the Shift was 17.3.
The like results for `C[C@@H](c1ccc(-c2cnc(C#N)cn2)cc1)N1CC[C@](CC(C)(C)O)(c2ccc(F)cc2)OC1=O` [EXAMPLE 153, 5-(4-((S)-1-((S)-6-(4-fluorophenyl)-6-(2-hydroxy-2-methylpropyl)-2-oxo-1,3-oxazinan-3-yl)ethyl)phenyl)pyrazine-2-carbonitrile] were, in that order, 1.7 nM, under 100 nM, 9.2 nM, 94.7% and 5.4.
The like results for `C[C@@H](c1ccc(-c2cnccn2)cc1)N1CC[C@](CCCO)(c2ccc(F)cc2)OC1=O` [EXAMPLE 108, (R)-6-(4-fluorophenyl)-6-(3-hydroxypropyl)-3-((S)-1-(4-(pyrazin-2-yl)phenyl)ethyl)-1,3-oxazinan-2-one] were, in that order, 1.8 nM, under 100 nM, 7.1 nM, 98.1% and 4.0.
For `C[C@@H](c1ccc(-c2cccnc2)cc1)N1CC[C@](CCC(N)=O)(c2ccccc2)OC1=O` [EXAMPLE 47, 3-((R)-2-oxo-6-phenyl-3-((S)-1-(4-(pyridin-3-yl)phenyl)ethyl)-1,3-oxazinan-6-yl)propanamide], the half-maximal inhibitory concentration (IC50) is 2.6 nM in experiment [1] (setting [3]), under 100 nM in experiment [1] (setting [4]) and 21.4 nM in experiment [2]. For the same compound, the inhibition at 0.1 µM in experiment [1] was determined as 91%.
Take `C[C@@H](c1ccc(-c2cccnc2)cc1)N1CC[C@](CCC(N)=O)(c2ccc(F)cc2)OC1=O` [EXAMPLE 41, 3-((R)-6-(4-fluorophenyl)-2-oxo-3-((S)-1-(4-(pyridin-3-yl)phenyl)ethyl)-1,3-oxazinan-6-yl)propanamide]: the IC50 was 1.9 nM in experiment [1] (setting [3]), under 100 nM in experiment [1] (setting [4]) and 11 nM in experiment [2]. The inhibition at 0.1 µM in experiment [1] worked out at 96.8%.
Take `C[C@@H](c1ccc(-c2ccccn2)cc1)N1CC[C@](CCC(N)=O)(c2ccccc2)OC1=O` [EXAMPLE 88, 3-((R)-2-oxo-6-phenyl-3-((S)-1-(4-(pyridin-2-yl)phenyl)ethyl)-1,3-oxazinan-6-yl)propanamide]: the IC50 in experiment [1] (setting [3]) is 1.7 nM; in experiment [1] (setting [4]), under 100 nM; in experiment [2], 9.9 nM. For the same compound, the inhibition at 0.1 µM in experiment [1] was 98.3%.
Take `Cc1cc(-c2ccc([C@H](C)N3CC[C@](CC(C)(C)O)(c4ccc(F)cc4)OC3=O)cc2)cc[n+]1[O-]` [EXAMPLE 124, 4-(4-((S)-1-((S)-6-(4-fluorophenyl)-6-(2-hydroxy-2-methylpropyl)-2-oxo-1,3-oxazinan-3-yl)ethyl)phenyl)-2-methylpyridine 1-oxide]: the values for the IC50 in experiment [1] (setting [3]), in experiment [1] (setting [4]) and in experiment [2] were 5.6 nM, under 100 nM and 14.5 nM, respectively. Moreover, the inhibition at 0.1 µM in experiment [1] is 88.1%. Moreover, in experiment [2], the Shift stood at 2.6.
The like results for `COc1ccc(-c2ccc([C@H](C)N3CC[C@](CCO)(c4ccc(F)cc4)OC3=O)cc2)cn1` [EXAMPLE 63, (S)-6-(4-fluorophenyl)-6-(2-hydroxyethyl)-3-((S)-1-(4-(6-methoxypyridin-3-yl)phenyl)ethyl)-1,3-oxazinan-2-one] were, in that order, 0.8 nM, under 100 nM, 15.2 nM, 101% and 18.4.
